Holding throughout (assay type): cell-based
For assay [1], the target named is T1, vanilloid receptor 1 (VR1/TRPV1) of the rat species (Rattus norvegicus, UniProt O35433).
T1 construct: The spinal column is removed from decapitated rats; from tissue; host or cells: primary cells from rat dorsal root ganglia (DRG)
As to the kind of experiment: FLIPR Ca2+ influx assay on rat dorsal root ganglia cells, capsaicin stimulus (Pharmacological method I). To be noted: capsaicin 100 nM stimulus, Ki from IC50 by Cheng-Prusoff. As to the method:
The agonistic or antagonistic action of the substances to be investigated on the vanilloid receptor 1 (VR1/TRPV1) of the rat species may be determined with the following assay. According to this assay, the influx of Ca^2+ through the receptor channel is quantified with the assistance of a Ca^2+-sensitive dye (type Fluo-4, Molecular Probes Europe BV, Leiden, Netherlands) in a Fluorescent Imaging Plate Reader (FLIPR, Molecular Devices, Sunnyvale, USA).
Complete medium: 50 mL HAMS F12 Nutrient Mixture (Gibco Invitrogen GmbH, Karlsruhe, Germany) with 10 vol. % FCS (foetal calf serum, Gibco Invitrogen GmbH, Karlsruhe, Germany, heat-inactivated);
Cell culture plate: poly-D-lysine-coated, black 96-hole plates with clear base (96 well black/clear plate, BD Biosciences, Heidelberg, Germany) are additionally coated with laminin (Gibco Invitrogen GmbH, Karlsruhe, Germany), by diluting laminin to a concentration of 100 μg/mL with PBS (Ca—Mg-free PBS, Gibco Invitrogen GmbH, Karlsruhe, Germany). Aliquots with a concentration of 100 μg/mL of laminin are taken and stored at −20° C. The aliquots are diluted with PBS in the ratio of 1:10 to 10 μg/mL of laminin and 50 μL of the solution is pipetted into each well of the cell culture plate. The cell culture plates are incubated for at least two hours at 37° C., the supernatant solution is aspirated and the wells are each washed twice with PBS. The coated cell culture plates are stored with supernatant PBS and this is only removed directly prior to introduction of the cells.
The spinal column is removed from decapitated rats and this is placed directly in cold HBSS buffer (Hank's buffered saline solution, Gibco Invitrogen GmbH, Karlsruhe, Germany), i.e. located in an ice bath, combined with 1 vol. % (percent by volume) of an AA solution (antibiotic/antimycotic solution, PAA, Pasching, Austria). The spinal column is severed lengthwise and removed from the spinal canal together with fasciae. The dorsal root ganglia (DRGs) are then removed and in turn stored in cold HBSS buffer combined with 1 vol. % of an AA solution. The DRGs, from which blood residues and spinal nerves have been completely removed, are in each case transferred into 500 μL cold collagenase type 2 (PAA, Pasching, Austria) and incubated for 35 minutes at 37° C. After the addition of 2.5 vol. % trypsin (PAA, Pasching, Austria) incubation at 37° C. is continued for a further 10 minutes. After complete incubation, the enzyme solution is carefully pipetted off and the remaining DRGs are combined in each case with 500 μL of complete medium.
The DRGs are in each case repeatedly suspended, drawn through cannulas no. 1, no. 12 and no. 16 by means of a syringe and transferred into 50 mL Falcon microtubes, these being filled to 15 mL with complete medium. The content of each Falcon microtube is in each case filtered through a 70 μm Falcon filter insert and centrifuged for 10 minutes at 1200 revolutions and room temperature. The resultant pellet is in each case redissolved in 250 μL of complete medium and the cell count is determined.
The number of cells in the suspension is adjusted to 3×10^5 per mL and a 150 μL portion of this suspension is in each case placed in a well of the cell culture plates which have been coated as described above. The plates are left to stand in the incubator for two to three days at 37° C., 5 vol. % CO2 and 95% relative atmospheric humidity.
The cells are then loaded with 2 μM Fluo-4 and 0.01 vol. % Pluronic F127 (Molecular Probes Europe BV, Leiden, Netherlands) in HBSS buffer (Hank's buffered saline solution, Gibco Invitrogen GmbH, Karlsruhe, Germany) for 30 min at 37° C., washed 3×with HBSS buffer and, after a further 15 minutes' incubation at room temperature, used for Ca^2+ measurement in the FLIPR assay. Ca^2+-dependent fluorescence is here measured before and after the addition of substances (λex=488 nm, λem=540 nm). […]

For a further assay, the target named is T2, vanilloid receptor (VR1) (Homo sapiens, UniProt Q8NER1).
T2 construct: expressed in transfected cells; host or cells: CHO K1 cells (ECACC), stably transfected
Briefly: FLIPR Ca2+ influx assay with CHO K1 cells transfected with the human VR1 gene, capsaicin stimulus (Pharmacological method II). Particulars: for Ki / Ki (human) Capsaicin: capsaicin 100 nM stimulus, Ki from IC50 by Cheng-Prusoff. As to the method:
In addition, compounds according to the invention of the general formulae I, Ia, Ib, I′, I″, I′″ may be preferred which, in a FLIPR assay with CHO K1 cells which have been transfected with the human gene VR1, in a concentration of less than 2000 nM, preferably of less than 1000 nM, particularly preferably of less then 300 nM, very particularly preferably of less than 100 nM, still more preferably of less than 75 nM, further preferably of less than 50 nM, most preferably of less than 10 nM, bring about 50% displacement of capsaicin which is present in a concentration of 100 nM.
In this FLIPR assay, the influx of Ca^2+ is quantified with the assistance of a Ca^2+-sensitive dye (type Fluo-4, Molecular Probes Europe BV, Leiden, Netherlands) in a Fluorescent Imaging Plate Reader (FLIPR, Molecular Devices, Sunnyvale, USA) as described below.
The agonistic or antagonistic action of the substances to be investigated on the vanilloid receptor (VR1) may also be determined with the following assay. According to this assay, the influx of Ca^2+ through the channel is quantified with the assistance of a Ca^2+-sensitive dye (type Fluo-4, Molecular Probes Europe BV, Leiden, Netherlands) in a Fluorescent Imaging Plate Reader (FLIPR, Molecular Devices, Sunnyvale, USA).
Chinese hamster ovary cells (CHO K1 cells, European Collection of Cell Cultures (ECACC), Great Britain) are stably transfected with the VR1 gene. For functional investigations, these cells are plated out onto poly-D-lysine-coated, black 96-hole plates with a clear base (BD Biosciences, Heidelberg, Germany) at a density of 25,000 cells/hole. The cells are incubated overnight at 37° C. and 5% CO2 in a culture medium (Ham's Nutrient Mixture F12, 10 vol. % FCS (foetal calf serum), 18 μg/mL L-proline). On the following day, the cells are incubated with Fluo-4 (Fluo-4 2 μM, Pluronic F127 0.01 vol. %, Molecular Probes in HBSS (Hank's buffered saline solution), Gibco Invitrogen GmbH, Karlsruhe, Germany) for 30 minutes at 37° C. The plates are then washed 3 times with HBSS buffer and, after a further 15 minutes' incubation at room temperature, used for Ca^2+ measurement in the FLIPR. Ca^2+-dependent fluorescence is here measured before and after the addition of the substances to be investigated (wavelength λex=488 nm, λem=540 nm). Quantification proceeds by measuring the highest fluorescence intensity (FC, fluorescence counts) over time.
The FLIPR protocol consists of 2 additions of substance. The substances to be tested (10 μM) are firstly pipetted onto the cells and Ca^2+ influx is compared with the control (capsaicin 10 μM) (% activation relative to the Ca^2+ signal after addition of 10 μM of capsaicin). After 5 minutes' incubation, 100 nM of capsaicin are added and the influx of Ca^2+ is likewise determined.
The percentage inhibition in comparison with the maximum achievable inhibition with 10 μM capsaicin is calculated.
On the basis of the percentage displacement by different concentrations of the compounds to be tested of the general formula I, IC50 inhibition concentrations which bring about 50% displacement of capsaicin were calculated. Ki values for the test substances were obtained by conversion using the Cheng-Prusoff equation (Cheng, Prusoff; Biochem. Pharmacol. 22, 3099-3108, 1973).

For assay [2], the target named is vanilloid receptor 1 (VR1/TRPV1 receptor) (Homo sapiens, UniProt Q8NER1). As to the kind of experiment: Human VR1/TRPV1 receptor inhibition after pH stimulus. Particulars: for inhibition at 5 µM: compound 5 μM; for inhibition at 10 µM: compound 10 μM.

As usually defined, the Ki is a measure of affinity in units of concentration, obtained from inhibition or displacement. Read a low Ki as tighter binding. A word on the IC50: it is the concentration that inhibits the measured activity by half. Higher therefore signals weaker potency. The term inhibition denotes the share of the control response that was lost under treatment. High values mean strong suppression, low ones little suppression.

vanilloid receptor 1 (VR1/TRPV1 receptor), sequence (Q8NER1 whole entry): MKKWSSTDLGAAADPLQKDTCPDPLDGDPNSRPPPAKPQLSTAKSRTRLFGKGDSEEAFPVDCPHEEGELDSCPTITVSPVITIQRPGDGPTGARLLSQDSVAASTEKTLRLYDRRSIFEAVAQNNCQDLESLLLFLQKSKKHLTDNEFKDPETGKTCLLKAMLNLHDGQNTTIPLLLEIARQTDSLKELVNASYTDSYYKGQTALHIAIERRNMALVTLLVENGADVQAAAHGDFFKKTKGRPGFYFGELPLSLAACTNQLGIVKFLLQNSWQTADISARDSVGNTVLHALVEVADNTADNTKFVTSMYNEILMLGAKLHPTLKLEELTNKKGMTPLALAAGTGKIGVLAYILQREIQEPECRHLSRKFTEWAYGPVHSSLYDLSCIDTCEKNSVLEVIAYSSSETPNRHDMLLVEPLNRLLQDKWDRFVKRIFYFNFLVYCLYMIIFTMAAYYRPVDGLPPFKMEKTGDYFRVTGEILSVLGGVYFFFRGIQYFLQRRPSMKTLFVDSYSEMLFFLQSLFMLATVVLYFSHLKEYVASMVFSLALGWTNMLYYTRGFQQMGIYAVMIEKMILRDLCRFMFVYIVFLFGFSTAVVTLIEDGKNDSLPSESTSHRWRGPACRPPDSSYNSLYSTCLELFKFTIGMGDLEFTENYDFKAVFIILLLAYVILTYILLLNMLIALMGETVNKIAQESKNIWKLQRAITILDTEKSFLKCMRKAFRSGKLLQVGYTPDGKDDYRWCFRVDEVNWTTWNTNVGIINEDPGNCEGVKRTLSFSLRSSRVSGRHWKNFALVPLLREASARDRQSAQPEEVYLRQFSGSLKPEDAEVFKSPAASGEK
T2 sequence (Q8NER1 whole entry): as above
T1 sequence (O35433 whole entry): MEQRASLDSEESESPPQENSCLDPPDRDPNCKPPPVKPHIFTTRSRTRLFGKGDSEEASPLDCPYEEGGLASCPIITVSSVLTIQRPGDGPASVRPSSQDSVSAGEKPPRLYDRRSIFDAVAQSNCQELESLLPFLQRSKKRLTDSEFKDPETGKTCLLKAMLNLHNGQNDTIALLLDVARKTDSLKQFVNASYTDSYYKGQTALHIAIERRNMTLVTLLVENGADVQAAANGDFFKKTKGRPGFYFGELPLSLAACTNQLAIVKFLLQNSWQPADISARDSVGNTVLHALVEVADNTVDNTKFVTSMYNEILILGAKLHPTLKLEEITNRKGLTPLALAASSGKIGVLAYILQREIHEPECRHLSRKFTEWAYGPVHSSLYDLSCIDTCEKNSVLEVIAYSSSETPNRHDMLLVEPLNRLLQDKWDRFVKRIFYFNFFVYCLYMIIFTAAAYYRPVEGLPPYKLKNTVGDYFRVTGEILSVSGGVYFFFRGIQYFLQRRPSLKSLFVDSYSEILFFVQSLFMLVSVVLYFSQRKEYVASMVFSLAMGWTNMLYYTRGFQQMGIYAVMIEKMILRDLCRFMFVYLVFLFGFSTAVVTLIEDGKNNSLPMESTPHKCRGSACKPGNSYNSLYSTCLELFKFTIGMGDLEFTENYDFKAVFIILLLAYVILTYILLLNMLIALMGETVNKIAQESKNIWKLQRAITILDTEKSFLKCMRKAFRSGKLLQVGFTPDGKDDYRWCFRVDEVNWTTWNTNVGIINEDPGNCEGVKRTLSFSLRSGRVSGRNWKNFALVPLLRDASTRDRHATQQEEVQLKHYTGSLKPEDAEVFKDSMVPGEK

As to `CCC(=O)N(c1ccccc1)C1CCN(c2nc(C(F)(F)F)ccc2CNC(=O)C(C)c2ccc(N(C(=O)CC)S(C)(=O)=O)c(F)c2)CC1` (stereo not drawn) [Example 1, N-(2-fluoro-4-(1-oxo-1-((2-(4-(N-phenylpropionamido)piperidin-1-yl)-6-(trifluoromethyl)pyridin-3-yl)methylamino)propan-2-yl)phenyl)-N-(methylsulfonyl)propionamide], the Ki in assay [1] worked out at 19.5 nM; at vanilloid receptor (VR1), 69.1 nM. In addition, the IC50 in assay [2] worked out at 525 nM.
With `CC(=O)N(c1ccc(C(C)C(=O)NCc2ccc(C(F)(F)F)nc2N2CCC(C)CC2)cc1F)S(C)(=O)=O` (stereo not drawn) [Example 2, 2-(3-fluoro-4-(N-(methylsulfonyl)acetamido)phenyl)-N-((2-(4-methylpiperidin-1-yl)-6-(trifluoromethyl)pyridin-3-yl)methyl)propanamide], the Ki in assay [1] was found to be 2.2 nM; at vanilloid receptor (VR1), 11.9 nM. This molecule showed an IC50 in assay [2] of 947 nM.
`CC1CCN(c2nc(C(F)(F)F)ccc2CNC(=O)C(C)c2ccc(N(C)S(C)(=O)=O)c(F)c2)CC1` (stereo not drawn) [Example 3, 2-(3-fluoro-4-(N-methylmethylsulfonamido)phenyl)-N-((2-(4-methylpiperidin-1-yl)-6-(trifluoromethyl)pyridin-3-yl)methyl)propanamide] came in with a Ki in assay [1] of 20 nM. For the same molecule, affinity at vanilloid receptor (VR1) was put at a Ki of 55.5 nM. Further, in assay [2], 5 µM produced 8% inhibition and the inhibition at 10 µM is 16%.
As for `CC(C(=O)NCc1ccc(C(C)(C)C)cc1)c1ccc(N(C)S(C)(=O)=O)c(F)c1` (stereo not drawn) [Example 4, N-(4-tert.-butylbenzyl)-2-(3-fluoro-4-(N-methylmethylsulfonamido)phenyl)propanamide], the affinity in assay [1], expressed as Ki, was 50.4 nM. Further, the “Ki (human) Capsaicin” value at vanilloid receptor (VR1) is “Ne”. In assay [2], this molecule came in with an inhibition at 5 µM of 0% and an inhibition at 10 µM of 22%.
With `CCN(c1ccc([C@H](C)C(=O)NCc2ccc(C(C)(C)C)cc2)cc1F)S(C)(=O)=O` [Example 6, (S)—N-(4-tert.-butylbenzyl)-2-(4-(N-ethylmethylsulfonamido)-3-fluorophenyl)propanamide], the Ki in assay [1] came out at 66.8 nM. Besides, the “Ki (human) Capsaicin” value at vanilloid receptor (VR1) is listed as “Ne”. Besides, in assay [2], the inhibition at 5 µM is 0% and the inhibition at 10 µM worked out at 21%.
The molecule `CC(C(=O)NCc1ccc(C(F)(F)F)nc1SC1CCCCC1)c1ccc(N(C)S(C)(=O)=O)c(F)c1` (stereo not drawn) [Example 7, N-((2-(cyclohexylthio)-6-(trifluoromethyl)pyridin-3-yl)methyl)-2-(3-fluoro-4-(N-methylmethylsulfonamido)phenyl)propanamide] had a Ki in assay [1] of 30.8 nM. The same molecule had a Ki on vanilloid receptor (VR1) of 48.1 nM. In assay [2], this molecule registered an inhibition at 5 µM of 0% and an inhibition at 10 µM of 20%.
`CCN(c1ccc(C(C)C(=O)NCc2ccc(C(F)(F)F)nc2N2CCC(C)CC2)cc1F)S(C)(=O)=O` (stereo not drawn) [Example 9, 2-(4-(N-ethylmethylsulfonamido)-3-fluorophenyl)-N-((2-(4-methylpiperidin-1-yl)-6-(trifluoromethyl)pyridin-3-yl)methyl)propanamide]: the figures for the Ki (in assay [1]; at vanilloid receptor (VR1)) were 63.8 nM and 22.7 nM, respectively. The molecule also displayed an inhibition at 5 µM in assay [2] of 11%. In assay [2], this molecule registered an inhibition at 10 µM of 46%.
Take `CC1CCN(c2nc(C(C)(C)C)ccc2CNC(=O)C(C)c2ccc(N(C)S(C)(=O)=O)c(F)c2)CC1` (stereo not drawn) [Example 10, N-((6-tert.-butyl-2-(4-methylpiperidin-1-yl)pyridin-3-yl)methyl)-2-(3-fluoro-4-(N-methylmethylsulfonamido)phenyl)propanamide]: the affinity in assay [1] corresponds to a Ki of 2.8 nM. Besides, on vanilloid receptor (VR1), affinity was put at a Ki of 27.7 nM. In assay [2], this molecule returned an inhibition at 5 µM of 0% and an inhibition at 10 µM of 11%.
On to `CC(C(=O)NCc1ccc(C(C)(C)C)nc1SC1CCCCC1)c1ccc(N(C)S(C)(=O)=O)c(F)c1` (stereo not drawn) [Example 11, N-((6-tert.-butyl-2-(cyclohexylthio)pyridin-3-yl)methyl)-2-(3-fluoro-4-(N-methylmethylsulfonamido)phenyl)propanamide], for which affinity in assay [1] was put at a Ki of 16.8 nM. Further, the inhibition at 0.1 µM against vanilloid receptor (VR1) (CHO-K1, capsaicin stimulus, compound 0.1 μM) amounted to 0%. This molecule registered an inhibition at 1 µM against vanilloid receptor (VR1) (CHO-K1, capsaicin stimulus, compound 1 μM) of 33%. For the same molecule, on vanilloid receptor (VR1) (CHO-K1, capsaicin stimulus, compound 5 μM), the inhibition at 5 µM was found to be 56%. The “IC50 (human) after pH stimulus” value in assay [2] is on record as “ne”.
`CC1CCN(c2cc(C(F)(F)F)ccc2CNC(=O)C(C)c2ccc(N(C)S(C)(=O)=O)c(F)c2)CC1` (stereo not drawn) [Example 12, 2-(3-fluoro-4-(N-methylmethylsulfonamido)phenyl)-N-(2-(4-methylpiperidin-1-yl)-4-(trifluoromethyl)benzyl)propanamide]: the values for the Ki (in assay [1]; on vanilloid receptor (VR1)) were 5 nM and 7.8 nM, respectively. Moreover, the inhibition at 5 µM in assay [2] was 0%. In assay [2], this molecule yielded an inhibition at 10 µM of 43%.

(Values after patent US8642623B2, “Vanilloid receptor ligand compounds, pharmaceutical compositions containing them, a method of producing them and the use thereof to treat pain and various other conditions” (Gruenenthal GmbH, priority 2007, dated 2014).)
